In the assay the target is Polθ theta (1-899) (hPolQ) (Homo sapiens (Human), UniProt O75417). Kind of assay: Biological Assay 1: Polθ ATPase activity, NADH oxidation-coupled enzymatic assay (10 nM enzyme, 30 min). In kind it is biochemical. To be noted: Polθ (1-899) 10 nM, 100 μM ATP, 300 nM dT50 ssDNA; Examples 1 to 268; read-out: ATPase NADH coupling:Standard Screening:hPolQ IC50. The method in brief:
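ATP turnover was coupled to NADH oxidation and followed at 340 nm every minute for 30 min. Enzyme (residues 1-899, 10 nM) sat with compound for 15 min at room temperature before an equal-volume addition of 100 μM ATP plus 300 nM dT50 ssDNA. Progress-curve slopes from 10-point dilutions were fitted by a four-parameter model.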

Polθ theta (1-899) (hPolQ), sequence (O75417 1-899): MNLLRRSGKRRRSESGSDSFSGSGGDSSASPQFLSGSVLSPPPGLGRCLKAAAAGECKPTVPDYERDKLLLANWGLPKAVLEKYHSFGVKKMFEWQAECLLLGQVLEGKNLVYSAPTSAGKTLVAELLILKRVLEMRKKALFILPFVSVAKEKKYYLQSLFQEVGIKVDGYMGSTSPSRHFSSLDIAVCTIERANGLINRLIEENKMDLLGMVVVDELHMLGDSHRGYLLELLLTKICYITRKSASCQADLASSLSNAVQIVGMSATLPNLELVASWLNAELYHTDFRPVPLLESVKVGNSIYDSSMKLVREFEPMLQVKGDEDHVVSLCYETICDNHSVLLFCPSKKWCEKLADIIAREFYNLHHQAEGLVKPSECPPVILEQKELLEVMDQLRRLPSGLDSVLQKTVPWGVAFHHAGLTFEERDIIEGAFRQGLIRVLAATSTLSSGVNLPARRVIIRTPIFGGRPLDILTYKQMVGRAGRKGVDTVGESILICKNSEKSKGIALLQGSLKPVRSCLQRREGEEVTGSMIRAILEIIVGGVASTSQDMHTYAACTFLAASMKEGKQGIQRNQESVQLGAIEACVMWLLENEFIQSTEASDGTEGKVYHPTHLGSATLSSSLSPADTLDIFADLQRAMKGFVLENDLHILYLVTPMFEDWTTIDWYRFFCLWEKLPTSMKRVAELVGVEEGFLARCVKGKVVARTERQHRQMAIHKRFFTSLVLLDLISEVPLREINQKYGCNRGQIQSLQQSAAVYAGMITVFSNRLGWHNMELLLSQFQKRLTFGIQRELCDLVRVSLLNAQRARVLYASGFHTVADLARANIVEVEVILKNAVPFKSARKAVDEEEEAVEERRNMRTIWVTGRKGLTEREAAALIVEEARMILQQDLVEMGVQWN

As to `COc1cnc(C)cc1-c1cc(C)ncc1C(=O)Nc1nnc(OC[C@H]2CC[C@@H](O)CC2)s1` [Example 127, N-(5-(((1s,4s)-4-hydroxycyclohexyl)methoxy)-1,3,4-thiadiazol-2-yl)-5′-methoxy-2′,6-dimethyl-[4,4′-bipyridine]-3-carboxamide], the IC50 (in general, the point on the concentration scale where inhibition reaches its midpoint) is at most 200 nM.
As for `COc1cnc(Cl)cc1-c1cc(C)ncc1C(=O)Nc1nnc(OC[C@H]2CC[C@@H](O)CC2)s1` [Example 128, 2′-chloro-N-(5-(((1s,4s)-4-hydroxycyclohexyl)methoxy)-1,3,4-thiadiazol-2-yl)-5′-methoxy-6-methyl-[4,4′-bipyridine]-3-carboxamide], the figure is at most 200 nM.
The value for `COc1cnc(Cl)cc1-c1cc(C)ncc1C(=O)Nc1nnc(OC[C@H]2CC[C@H](O)CC2)s1` [Example 129, 2′-chloro-N-(5-(((1r,4r)-4-hydroxycyclohexyl)methoxy)-1,3,4-thiadiazol-2-yl)-5′-methoxy-6-methyl-[4,4′-bipyridine]-3-carboxamide] was at most 200 nM; that for `COc1cccc(F)c1-c1cc(C)ncc1C(=O)Nc1nnc(OCc2ccc(C3CCO3)cn2)s1` (centres unmarked) [Example 130, 4-(2-fluoro-6-methoxyphenyl)-6-methyl-N-(5-((5-(oxetan-2-yl)pyridin-2-yl)methoxy)-1,3,4-thiadiazol-2-yl)nicotinamide] was at most 200 nM.
The value for `COc1cnc(Cl)cc1-c1cc(C)ncc1C(=O)Nc1nnc(OCC2(C)CCOC2)s1` (centres unmarked) [Example 131, 2′-chloro-5′-methoxy-6-methyl-N-(5-((3-methyloxolan-3-yl)methoxy)-1,3,4-thiadiazol-2-yl)-(4,4′-bipyridine)-3-carboxamide] was at most 200 nM; that for `COc1cccc(F)c1-c1cc(C)ncc1C(=O)Nc1nnc(OCC23CC(CO)(C2)C3)s1` [Example 132, 4-(2-fluoro-6-methoxyphenyl)-N-(5-((3-(hydroxymethyl)bicyclo(1.1.1)pentan-1-yl)methoxy)-1,3,4-thiadiazol-2-yl)-6-methylpyridine-3-carboxamide] was at most 200 nM; that for `COc1ccc(Cl)cc1-c1cc(C)ncc1C(=O)Nc1nnc(OCc2cnc(CO)cn2)s1` [Example 133, 4-(5-chloro-2-methoxyphenyl)-N-(5-((5-(hydroxymethyl)pyrazin-2-yl)methoxy)-1,3,4-thiadiazol-2-yl)-6-methylpyridine-3-carboxamide] was at most 200 nM.
For the compound `COc1ccc(C)cc1-c1cc(C)ncc1C(=O)Nc1nnc(OCc2cnc(CO)cn2)s1` [Example 134, N-(5-((5-(hydroxymethyl)pyrazin-2-yl)methoxy)-1,3,4-thiadiazol-2-yl)-4-(2-methoxy-5-methylphenyl)-6-methylpyridine-3-carboxamide], the IC50 is at most 200 nM.
As for `COc1cccc(F)c1-c1cc(C)ncc1C(=O)Nc1nnc(OCC2CCCn3nccc32)s1` (centres unmarked) [Example 135, 4-(2-fluoro-6-methoxyphenyl)-6-methyl-N-(5-(4H,5H,6H,7H-pyrazolo(1,5-a)pyridin-4-ylmethoxy)-1,3,4-thiadiazol-2-yl)pyridine-3-carboxamide], the figure is at most 200 nM; as for `COc1cnc(Cl)cc1-c1cc(C)ncc1C(=O)Nc1nnc(OCC23CCC(O)(CC2)CC3)s1` [Example 136, 2′-chloro-N-(5-((4-hydroxybicyclo(2.2.2)octan-1-yl)methoxy)-1,3,4-thiadiazol-2-yl)-5′-methoxy-6-methyl-(4,4′-bipyridine)-3-carboxamide], at most 200 nM.
`COc1cnc(Cl)cc1-c1cc(C)ncc1C(=O)Nc1nnc(OC[C@H]2CC[C@H](OC)CC2)s1` [Example 137, 2′-chloro-5′-methoxy-N-(5-(((1r,4r)-4-methoxycyclohexyl)methoxy)-1,3,4-thiadiazol-2-yl)-6-methyl-[4,4′-bipyridine]-3-carboxamide]: the half-maximal inhibitory concentration (IC50) is at most 200 nM.
